How the values were obtained:
[1] = biological target: T1, Klenow fragment exo− polymerase (Escherichia coli, UniProt P00582, D355A/E357A); assay type: biochemical, E. coli; conditions: Kf exo−; for Km / kcat: 37° C., single nucleotide incorporation, mean ± SD of three
T1 construct: Klenow fragment of DNA polymerase I 3′-exonuclease deficient variant, Kf exo^−; purchased New England BioLabs
Excerpt: Next we performed experiments to quantify the efficiency of ARNs as DNA polymerase substrates. We used published analytical high-resolution gel-based methods to evaluate steady state kinetics of the four nucleotides as substrates during single nucleotide incorporation experiments, with Kf exo^−. We performed similar measurements with the natural dNTPs for comparison.
Steady-State DNA Polymerase Efficiency with Chimeric ATP-Releasing Nucleotides, with Kf Exo^−.
Steady-state kinetics measurements. Steady-state kinetics assays were performed following previously published procedures (Swanson et al. Biochemistry 2011, 50, 7666-7673). The 13mer primer (SEQ ID NO:13, 5′-[…]-3′) was end labeled with T4 polynucleotide kinase and [γ-^32P]-ATP following the manufacturer's protocol. The 20mer template ODNs (SEQ ID NO:14, 5′-[…]-3′, N=A, T, C, G) were annealed with 5′-^32P-labeled 13mer primer as described above. The annealed primer-template duplex (0.05 μM) was incubated with Klenow fragment exo^− polymerase at 37° C. for 5 min in the presence of individual dNTPs or chimeric ATP-linked nucleotides at varied concentrations.
The parameters were adjusted to result in extents of reaction of 20% or less to maintain initial velocity conditions. The reaction was terminated with an equal volume of formamide gel loading buffer (95% formamide, 20 mM EDTA, 0.05% xylene cyanol and bromophenol blue). Extension products were separated on 20% denaturing polyacrylamide gels containing 8 M urea. Gel band intensities of the primer and its extension products were quantified using a Typhoon 9410 Variable Mode Imager. Quantitative imaging of bands was carried out using Image J software to determine the fraction of primer extension. The velocity was plotted as a function of dNTP (or ARN) concentration and fit with the Michaelis-Menten equation to obtain the kinetic parameters, Vmax and Km. Reactions were performed three times and the mean (±standard deviation) of Vmax and Km are reported. The kcat values were calculated by dividing the Vmax with the concentration of polmerase used. The efficiency of nucleotide incorporation was calculated by the ratio Kcat/Km.

Kf (exo-) polymerase = biological target: T2, Kf (exo-) polymerase (Escherichia coli, UniProt P00582, D355A/E357A); assay type: biochemical, E. coli; conditions: for signal on the T20 template sequence (misincorporation of adenosine ribonucleotide moiety): 20 μM ARN, (T)20 template, Kf polymerase
T2 construct: Klenow fragment of DNA polymerase I 3′-exonuclease deficient variant, Kf exo^−; purchased New England BioLabs
T2 sequence (P00582 324-928 D355A/E357A): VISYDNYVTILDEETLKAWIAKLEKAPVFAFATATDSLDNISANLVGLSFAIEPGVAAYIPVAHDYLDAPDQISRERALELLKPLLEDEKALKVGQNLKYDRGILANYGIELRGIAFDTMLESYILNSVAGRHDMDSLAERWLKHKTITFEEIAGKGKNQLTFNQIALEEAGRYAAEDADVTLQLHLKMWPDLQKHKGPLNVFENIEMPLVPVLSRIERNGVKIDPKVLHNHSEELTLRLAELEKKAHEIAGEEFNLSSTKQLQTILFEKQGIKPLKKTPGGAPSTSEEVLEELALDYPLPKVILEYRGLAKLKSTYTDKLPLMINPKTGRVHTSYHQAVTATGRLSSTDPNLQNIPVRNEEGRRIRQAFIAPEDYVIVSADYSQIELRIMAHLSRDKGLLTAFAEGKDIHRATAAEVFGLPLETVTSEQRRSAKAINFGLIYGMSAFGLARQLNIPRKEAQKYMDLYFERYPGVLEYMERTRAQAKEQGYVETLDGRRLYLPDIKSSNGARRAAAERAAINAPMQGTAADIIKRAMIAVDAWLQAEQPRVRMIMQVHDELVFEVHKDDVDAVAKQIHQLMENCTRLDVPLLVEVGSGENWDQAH
Method: polymerase. (A) Primer-template duplexes with (N)20 ends used in this study. (B) Luminescence signals resulting from the incorporation of ATP-linked nucleotides by Kf (exo.) polymerase. The Kf (exo.) polymerase reaction was carried out with 20 μM chimeric nucleotides and 1 μM corresponding primer template at 37° C. for 1 h. 5 μL of polymerase reaction solution were used for the luciferase reaction. […] (C) Kf (exo.) polymerase selectivity with chimeric nucleotides. The reaction was carried out using the (T)20 template and each of the four ARNs under the same reaction conditions as FIG. 2B.
FIG. 5. Selectivity of chimeric nucleotides with Kf (exo-) polymerase. Each of the four chimeric ARNs was supplied with the polymerase and the annealed primer-template duplex immediately upstream of the sequence T20 (A), C20 (B), A20 (C), and G20 (D), respectively. The polymerase reaction contained: 20 μM chimeric nucleotide, 1 μM corresponding primer/template and 1 μL Kf (exo-) polymerase in manufacturer's polymerase reaction buffer. After 1 h incubation at 37° C., 5 μL reaction solutions were added to 95 μL luciferase reaction solution. The bioluminescence signal was recorded at 1 min intervals over 1 h by microplate fluorimeter.
Our initial studies were directed at testing whether these modified nucleotides would be active as substrates for a DNA polymerase. We carried out experiments of primer extension on short synthetic primer/template duplexes (FIG. 2; 1 μM) in the presence of a standard polymerase (Klenow fragment of DNA polymerase I 3′-exonuclease deficient variant, Kf exo^−). We supplied one ARN at a time (20 μM) to its complementary template for one hour; if synthesis were successful it should generate up to ˜20 μM ATP as by-product of the reaction. We removed a small aliquot of the polymerase reaction and measured luminescence from this aliquot containing ATP in a commercial luciferase+luciferin reaction buffer over one hour (FIG. 2B). […] In this latter case we hypothesize the presence of intra- or inter-molecular G quadruplex structures that may inhibit the polymerase, possibly explaining the diminishment of ATP signal. In all four cases, signals were considerably (13-33-fold) higher than background in which primer/template DNA was omitted.
Next we tested sequence selectivity of the chimeric nucleotides, evaluating sixteen combinations of ARNs with the four DNA sequences (FIG. 2C and FIG. 5). In all cases, the correct nucleotide/target sequence combinations yielded much higher signals than incorrect combinations, showing clear nucleotide/template base selectivity. […]
Primer extension and luciferase signaling with short linear test templates. […] The bioluminescence signal was recorded by microplate fluorometer (Fluoroskan Ascent, Thermal). […]

T1 sequence (P00582 324-928 D355A/E357A): as above

SMILES	Km [1]	kcat [1]	kcat/Km less than that of native congener dNTP [1]	signal on the T20 template sequence (misincorporation of adenosine ribonucleotide moiety) (Kf (exo-) polymerase)	background signal in selectivity experiments (Kf (exo-) polymerase; sixteen combinations of ARNs with four DNA sequences)
Nc1ncnc2c1ncn2[C@H]1C[C@H](O)[C@@H](COP(=O)(O)OP(=O)(O)OP(=O)(O)O)O1 [dATP, reference compound]	0.35 ± 0.05 µM	0.143 ± 0.005 s⁻¹	–	–	–
Nc1ncnc2c1ncn2[C@@H]1O[C@H](COP(=O)(O)OP(=O)(O)OP(=O)(O)OP(=O)(O)OC[C@H]2O[C@@H](n3cnc4c(N)ncnc43)C[C@@H]2O)[C@@H](O)[C@H]1O [dAppppA, Deoxyadenosine-5′-tetraphosphate-P4-5′-Adenosine]	1.3 ± 0.4 µM	0.118 ± 0.0033 s⁻¹	5 fold	–	–
Nc1ccn([C@H]2C[C@H](O)[C@@H](COP(=O)(O)OP(=O)(O)OP(=O)(O)O)O2)c(=O)n1 [dCTP, reference compound]	0.07 ± 0.01 µM	0.233 ± 0.0067 s⁻¹	–	–	–
Nc1ccn([C@H]2C[C@H](O)[C@@H](COP(=O)(O)OP(=O)(O)OP(=O)(O)OP(=O)(O)OC[C@H]3O[C@@H](n4cnc5c(N)ncnc54)[C@H](O)[C@@H]3O)O2)c(=O)n1 [dCppppA, Deoxycytidine-5′-tetraphosphate-P4-5′-Adenosine]	3 ± 0.2 µM	0.215 ± 0.0017 s⁻¹	–	lack of enhanced signal	main background signal
Nc1nc2c(ncn2[C@H]2C[C@H](O)[C@@H](COP(=O)(O)OP(=O)(O)OP(=O)(O)O)O2)c(=O)[nH]1 [dGTP, reference compound]	0.11 ± 0.01 µM	0.257 ± 0.0083 s⁻¹	–	–	–
Nc1nc2c(ncn2[C@H]2C[C@H](O)[C@@H](COP(=O)(O)OP(=O)(O)OP(=O)(O)OP(=O)(O)OC[C@H]3O[C@@H](n4cnc5c(N)ncnc54)[C@H](O)[C@@H]3O)O2)c(=O)[nH]1 [dGppppA, Deoxyguanosine-5′-tetraphosphate-P4-5′-Adenosine]	3.5 ± 0.4 µM	0.118 ± 0.0083 s⁻¹	70 fold	lack of enhanced signal	–
Cc1cn([C@H]2C[C@H](O)[C@@H](COP(=O)(O)OP(=O)(O)OP(=O)(O)O)O2)c(=O)[nH]c1=O [dTTP, reference compound]	0.24 ± 0.06 µM	0.145 ± 0.005 s⁻¹	–	–	–
Cc1cn([C@H]2C[C@H](O)[C@@H](COP(=O)(O)OP(=O)(O)OP(=O)(O)OP(=O)(O)OC[C@H]3O[C@@H](n4cnc5c(N)ncnc54)[C@H](O)[C@@H]3O)O2)c(=O)[nH]c1=O [dTppppA, Thymidine-5′-tetraphosphate-P4-5′-Adenosine]	2.2 ± 0.6 µM	0.0617 ± 0.0017 s⁻¹	–	lack of enhanced signal	–
